Literature values, collected in patent publication US8637310B2, “Use of a rock inhibitor to sustain primary human keratinocytes in a proliferative state” (The United States of America, as represented by the …, priority 2008, dated 2014).

Tested on: airway epithelial cells
Details: Moore et al. 2004; cited from earlier work

O=S(=O)(c1cccc2cnccc12)N1CCCNCC1 [HA 1077]
effect on airway epithelial cells: induces membrane ruffling, loss of actin stress fibers and apoptosis
